According to PMC9769880, “Diverse Sensory Repertoire of Paralogous Chemoreceptors Tlp2, Tlp3, and Tlp4 in Campylobacter jejuni” (Microbiology Spectrum, 2022):
Like-named read-outs stand apart in the source and are kept apart here.

Key:
Tlp3 [1] = target: Tlp3 (Campylobacter jejuni, UniProt Q0P864); assay: biochemical; format: binding
Protocol: His-tagged proteins (Tlp2, -3, and -4) were prepared as previously described ([11]) DNA segments encoding the periplasmic sensory domains (33 to 286 amino acids) of Tlp2 and (38 to 297 amino acids) of Tlp4 were amplified (see Table S7), ligated into pGEM-T Easy (Promega) and subcloned into pET-19b (Novagen) (see Table S6). Recombinant proteins were expressed in E. coli BL21(DE3) using 1 mM IPTG (isopropyl-β-D-thiogalactopyranoside) and purified using His-select-nickel chromatography as described previously ([8], [11]). […] Protein concentrations were determined using a NanoDrop spectrophotometer (Thermo Fisher).
Surface plasmon resonance (SPR) experiments were performed as described previously ([10], [11]) with the following modifications. […] All ligands were prepared in PBS (pH 7.2) and serially diluted from 0.2 to 0.0125 mM. A 10-min dissociation period was allocated after the introduction of each analyte. SPR experiments were performed in single-cycle kinetics mode using the BIAcore S200 biosensor system (Cytiva) at 25°C in PBS (pH 7.2) at a flow rate of 30 μL/min. The equilibrium dissociation constant (KD) for each analyte was determined using BIAcore S200 Evaluation software with a report point 4 s after the injection stop to account for the bulk transfer of the small molecule against a large amount of immobilized protein (as shown in Fig. S5).

Tlp3^LBD D196A = Tlp3^LBD D196A (Campylobacter jejuni, UniProt Q0P864, D196A); assay: biochemical
Chain of Tlp3^LBD D196A (Q0P864 41-290 D196A): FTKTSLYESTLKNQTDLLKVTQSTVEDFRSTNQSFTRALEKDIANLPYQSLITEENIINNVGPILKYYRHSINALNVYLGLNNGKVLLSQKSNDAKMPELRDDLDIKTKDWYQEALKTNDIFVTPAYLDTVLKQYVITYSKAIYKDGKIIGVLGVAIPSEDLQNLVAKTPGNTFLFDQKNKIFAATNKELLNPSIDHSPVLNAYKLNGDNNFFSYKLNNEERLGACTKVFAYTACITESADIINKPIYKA

Tlp3^LBD D170A = Tlp3^LBD D170A (Campylobacter jejuni, UniProt Q0P864); assay: biochemical
Chain of Tlp3^LBD D170A (Q0P864 41-290 T170A): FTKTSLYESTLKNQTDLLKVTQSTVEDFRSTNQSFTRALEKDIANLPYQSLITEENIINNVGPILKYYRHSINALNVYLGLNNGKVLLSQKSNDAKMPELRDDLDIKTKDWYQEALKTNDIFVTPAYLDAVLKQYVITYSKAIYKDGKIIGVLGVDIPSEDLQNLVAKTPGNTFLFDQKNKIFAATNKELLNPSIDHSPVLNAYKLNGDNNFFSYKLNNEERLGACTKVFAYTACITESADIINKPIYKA

Tlp3^LBD K149A = Tlp3^LBD K149A (Campylobacter jejuni, UniProt Q0P864, K149A); assay: biochemical
Chain of Tlp3^LBD K149A (Q0P864 41-290 K149A): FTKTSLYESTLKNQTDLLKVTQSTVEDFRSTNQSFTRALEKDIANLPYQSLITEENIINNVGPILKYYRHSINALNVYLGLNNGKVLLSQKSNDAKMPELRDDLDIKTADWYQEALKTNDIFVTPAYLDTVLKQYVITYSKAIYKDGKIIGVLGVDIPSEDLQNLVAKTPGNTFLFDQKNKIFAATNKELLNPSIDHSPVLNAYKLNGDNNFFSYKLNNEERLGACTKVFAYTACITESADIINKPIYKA

Tlp3^LBD W151A = Tlp3^LBD W151A (Campylobacter jejuni, UniProt Q0P864, W151A); assay: biochemical
Chain of Tlp3^LBD W151A (Q0P864 41-290 W151A): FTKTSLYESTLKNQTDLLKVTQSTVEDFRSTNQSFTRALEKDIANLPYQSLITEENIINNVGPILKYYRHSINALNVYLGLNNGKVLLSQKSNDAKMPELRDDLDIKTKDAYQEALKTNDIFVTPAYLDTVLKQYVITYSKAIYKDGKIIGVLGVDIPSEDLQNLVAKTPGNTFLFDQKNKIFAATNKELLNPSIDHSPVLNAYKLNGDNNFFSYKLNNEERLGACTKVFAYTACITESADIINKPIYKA

WT Tlp3^LBD = assay: SPR competition assay (A-B-A inject); format: binding, Campylobacter jejuni; conditions: 15 seconds after injection-B; glucose 300 µM, fucose 300 μM, malic acid 200 μM
Protocol: . Competition A-B-A analyses determine the specificity of the potential ligand-binding site preferences of WT Tlp3^LBD. The bound protein is saturated with the first analyte (A), followed by the introduction of a second analyte (B); the assay is designed to show whether a cumulative response is observed after the second analyte (B) is added. A cumulative response indicates two independent binding sites, whereas the lack of a cumulative response indicates a single site where ligands compete for binding, i.e., when analyte A occupies a ligand binding site, analyte B cannot bind. […] All response data were normalized to a 100-Da molecular weight for each analyte, allowing direct comparison of the responses. Both actual RU values and theoretical values are recorded for comparison.
Figure S6. […] A) Injections are […]
at 300 μM for 60 seconds). Final responses units (RU) of injections are recorded (indicated by dashed vertical […]
81 at 15 s econds after injection- B and l fu cose […]
and fucose were compet ed was 4.4 RU ± 0.46. As this value sits be low 5 RU, it indicates direct competition for […]
Final respons es units (RU) of injections ar e re cor ded (indicated […]
As this value sits between
5.07- 13.5 RU, it indicates direct competition for the same site with glucos e replacing some of the bound malic acid during the 60 second injection- B.

Δtlp3,4 mutant = format: cell-based
Δtlp2,3 mutant = format: cell-based; conditions: P < 0.05
Tlp2 = format: cell-based, C. jejuni 11168-O; conditions: for chemotactic response via Tlp2: nutrient-depleted chemotaxis assay
Protocol: (§1) The biological relevance of the binding specificities of the Tlp2,3,4 cluster was assessed by examining chemotactic responses of C. jejuni 11168-O tlp2, tlp3, and tlp4 wild-type (WT) and mutant strains using a nutrient-depleted chemotaxis assay. All ligands, with the exception of lysine and cysteine, interacted with Tlp2 and Tlp4 as attractants (Table 1), showing an ~1- to ~2-log decrease (P < 0.05) in migration toward the ligand compared to the WT strain.
(§2) Chemotaxis assays—the nutrient-depleted chemotaxis assay and the modified hard agar plug assay (tHAP)—were performed as previously described ([11], [34]). The chemotactic responses of all isogenic strains were compared to that of the C. jejuni 11168-O wild-type strain to distinguish between chemoattractants and chemorepellents. For the nutrient-depleted chemotaxis and modified hard agar plug (tHAP) assays, all differences were calculated as changes on a log10 scale. Controls were provided by using nonmotile (C. jejuni 81116 flaAB) and nonchemotactic (C. jejuni NCTC 11168 cheY) mutants ([69]) and mucin as negative and positive controls ([10]).

Tlp3 [2] = format: cell-based, C. jejuni 11168-O; conditions: for Tlp3 CR (chemoresponse): chemotaxis of mutant compared to WT strain
Protocol: as §1, §2

Tlp4 = format: cell-based, C. jejuni 11168-O; conditions: nutrient-depleted chemotaxis assay
Protocol: as §1, §2

Tlp3 [3] = test system: Tlp3; design: method as in PMID 24391495; conditions: cited from earlier work
Δtlp2,3,4 triple mutant = format: cell-based; conditions: P < 0.05
Δtlp2,4 mutant = format: cell-based; conditions: P < 0.05

Chain of Tlp3 (Campylobacter jejuni, UniProt Q0P864) (Q0P864 entry or part of it): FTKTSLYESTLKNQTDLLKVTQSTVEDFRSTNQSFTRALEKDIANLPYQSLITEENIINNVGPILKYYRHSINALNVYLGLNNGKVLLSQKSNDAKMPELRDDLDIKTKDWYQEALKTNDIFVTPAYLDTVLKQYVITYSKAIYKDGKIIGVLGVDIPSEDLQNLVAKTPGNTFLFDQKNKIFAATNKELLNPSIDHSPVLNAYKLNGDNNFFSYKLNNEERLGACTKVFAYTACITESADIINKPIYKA

## C[C@H](O)[C@@H](O)[C@@H](O)[C@H](O)C=O [Fucose]
Tlp3 [1]
  Kd: 25.2 ± 6.5 µM
Tlp3^LBD D196A
  Kd: 41.9 ± 13.2 µM
Tlp3^LBD D170A
  Kd: 46.6 ± 16.1 µM
Tlp3^LBD K149A
  Kd: 63.7 ± 16.8 µM
Tlp3^LBD W151A
  Kd: 66.9 ± 14.6 µM
WT Tlp3^LBD
  SPR response of single analyte: 9.86 RU

## NCCCC[C@H](N)C(=O)O [Lysine]
Tlp3 [1]
  Kd: 4.3 ± 1.6 µM
Δtlp3,4 mutant
  cell migration toward ligand, Δtlp3,4 mutant: no change in migration
Δtlp2,3 mutant
  cell migration toward ligand increased, Δtlp2,3 mutant: 1.8 log
Tlp2; chemotaxis of mutant compared to WT strain
  Tlp2 CR (chemoresponse): R
Tlp2; compared to the WT strain, P < 0.05
  increase in migration (Tlp2): 1.4 log
Tlp2
  chemotactic response via Tlp2: repellent
Tlp3 [2]
  Tlp3 CR (chemoresponse): R
Tlp4
  chemotactic response via Tlp4: attractant
Tlp3^LBD D196A
  Kd: 16.1 ± 9.1 µM
Tlp3^LBD D170A
  Kd: 14.5 ± 4.8 µM
Tlp3 [3]
  chemotactic response via Tlp3: repellent
Tlp3^LBD K149A
  Kd: 32.3 ± 5.3 µM
Tlp3^LBD W151A
  Kd: 27.3 ± 5.9 µM
Δtlp2,3,4 triple mutant
  increase in cell migration, Δtlp2,3,4 triple mutant: 1.5 log
Δtlp2,4 mutant
  cell migration toward ligand decreased, Δtlp2,4 mutant: 1.1 log

## CC(=O)N[C@H]1[C@H]([C@H](O)[C@H](O)CO)OC(O)(C(=O)O)C[C@@H]1O (stereo partly drawn) [Sialic acid]
Tlp3 [1]
  Kd: 9 ± 0.2 µM
Tlp2
  chemotactic response via Tlp2: attractants
Tlp3 [2]
  Tlp3 CR (chemoresponse): R
Tlp3 [2]; nutrient-depleted chemotaxis assay
  chemotactic response via Tlp3: repellents
Tlp4
  chemotactic response via Tlp4: attractants
Tlp3^LBD D196A
  Kd: 36.8 ± 3 µM
Tlp3^LBD D170A
  Kd: 16.6 ± 2 µM
Tlp3^LBD K149A
  Kd: 24 ± 6.6 µM
Tlp3^LBD W151A
  Kd: 17.3 ± 4.4 µM
